These are literature values, as cited in patent US20050272649A1, “Conjoint administration of morphogens and ACE inhibitors in treatment of chronic renal failure” (priority 2002, published 2005).

Entries after “also recorded” stand apart in the source; their conditions may differ. Like-named read-outs stand apart in the source and are kept apart here.

The target in series [1] is T1, AT1 receptor (Homo sapiens, UniProt P30556).
T1 sequence (P30556 1-359): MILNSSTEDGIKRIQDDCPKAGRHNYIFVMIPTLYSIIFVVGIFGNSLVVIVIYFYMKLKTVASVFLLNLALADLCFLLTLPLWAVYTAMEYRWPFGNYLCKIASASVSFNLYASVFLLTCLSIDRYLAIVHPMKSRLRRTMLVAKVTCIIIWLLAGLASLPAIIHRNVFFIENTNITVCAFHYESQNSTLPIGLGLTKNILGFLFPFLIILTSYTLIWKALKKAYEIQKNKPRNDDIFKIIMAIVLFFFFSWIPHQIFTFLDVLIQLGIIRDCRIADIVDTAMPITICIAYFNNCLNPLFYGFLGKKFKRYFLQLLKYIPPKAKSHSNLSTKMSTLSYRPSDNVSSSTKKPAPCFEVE
The note with it: cited from earlier work.

The subject of series [2] is hypertension. The note with it: cited from earlier work; for safety / tolerability (in words): clinical studies.
The conditions of series [3]: oral administration; cited from earlier work.
[4] abbreviates: comparator and dosages as stated in the sentence.
Where [5] appears, read: olmesartan medoxomil 20 mg starting dose.

For `CCOc1nc2cccc(C(=O)O)c2n1Cc1ccc(-c2ccccc2-c2nnn[nH]2)cc1` [Candesartan], in series [1], the “affinity for the AT1 receptor relative to affinity for the AT2 receptor” value is recorded as “more than 10,000 times”. Moreover, in series [2] (candesartan 16 mg per day), the “diastolic blood pressure reduction, adjusted mean more than the 50-mg losartan dosage” value is given as 3.7 mm Hg. Besides, the “safety / tolerability (in words)” value in series [2] is “both safe and well tolerated”. Moreover, in series [2] (setting [4]), the “antihypertensive efficacy compared (in words)” value is on record as “Comparable reductions of diastolic blood pressure”. Further, the “oral absorption / bioavailability / pharmacokinetics (in words)” value in series [3] is “poorly absorbed after oral administration”.
Take `CCCCC1=NC2(CCCC2)C(=O)N1Cc1ccc(-c2ccccc2-c2nnn[nH]2)cc1` [Irbesartan]: the “affinity for the AT1 receptor relative to affinity for the AT2 receptor” value in series [1] was “more than 8,500 times”. In addition, the “safety / tolerability (in words)” value in series [2] was “safe and effective”. In addition, the “antihypertensive efficacy compared (in words)” value in series [2] (setting [4]) was “as effective as enalapril and atenolol in reducing blood pressure”; in series [2] (comparator and dosages as stated in the sentence, listed as irbesartan), “significantly greater”.
Take `CCCCc1nc(Cl)c(CO)n1Cc1ccc(-c2ccccc2-c2nn[nH]n2)cc1` [Losartan]: the “safety / tolerability (in words)” value in series [2] is reported as “well tolerated”. Moreover, the “antihypertensive efficacy compared (in words)” value in series [2] (comparator and dosages) was “as efficacious as enalapril and nifedipine for lowering blood pressure; also recorded: no significant difference in antihypertensive efficacy”. The “duration of activity for a dose” value in series [2] (losartan) was 24 h.
`CCCc1nc2c(C)cc(-c3nc4ccccc4n3C)cc2n1Cc1ccc(-c2ccccc2C(=O)O)cc1` [Telmisartan]: the “safety / tolerability (in words)” value in series [2] is “side effect profile similar to that of placebo; also recorded: no rebound hypertension or first-dose orthostatic effect”. Also, the “antihypertensive efficacy compared (in words)” value in series [2] (setting [4]) was “slightly greater antihypertensive effect than enalapril”. Further, the “oral absorption / bioavailability / pharmacokinetics (in words)” value in series [3] is on record as “Nonlinear pharmacokinetics”.
For `CCCCC(=O)N(Cc1ccc(-c2ccccc2-c2nnn[nH]2)cc1)[C@H](C(=O)O)C(C)C` [Valsartan], the “safety / tolerability (in words)” value in series [2] was “both safe and effective”. The “antihypertensive efficacy compared (in words)” value in series [2] (setting [4]) was “as effective as ACE inhibitors enalapril, lisinopril and amlodipine”.
In the case of `CCOc1nc2cccc(C(=O)OC(C)OC(=O)OC3CCCCC3)c2n1Cc1ccc(-c2ccccc2-c2nnn[nH]2)cc1` (stereo not drawn) [candesartan cilexetil], the “oral absorption / bioavailability / pharmacokinetics (in words)” value in series [3] is “improves bioavailability; also recorded: conversion to the active compound occurs rapidly and completely”.
`CCCc1nc(C(C)(C)O)c(C(=O)OCc2oc(=O)oc2C)n1Cc1ccc(-c2ccccc2-c2nnn[nH]2)cc1` [olmesartan medoxomil]: the “antihypertensive efficacy compared (in words)” value in series [2] (setting [4]) was “superior to losartan”. Moreover, in series [2] (setting [5]), the “reduction of diastolic pressure (average)” value is given as 12 mm Hg and the “reduction of systolic pressure (average)” value is 15 mm Hg.
